Reference: US10023615B2, “Efficient transport into white blood cells” (priority 2008, dated 2018)
“Also recorded” adds a separate entry of the source. Ends that are not written are not given here.

Tested on: hAPP Tg mice (APP751 London and Swedish mutations)
Assay: Morris Water Maze in hAPP-transgenic mice
Type: in vivo, mouse
Experimental: In order to determine the activity of the exemplary all-D retro-inverso IB(s) peptide XG-102 (SEQ ID NO: 233) in Alzheimer's disease, XG-102 (SEQ ID NO: 233) was evaluated in the hAPP-transgenic mice model overexpressing APP751 with London and Swedish mutations using the behavioral Morris Water Maze test as well as immunohistological tests measuring plaque load and ELISA tests measuring β-amyloid1-40 and β-amyloid1-42 levels in the brain of mice.
a) METHODS • i) Introduction • The study was designed to evaluate the efficacy of the test substance (XG-102, SEQ ID NO: 233) on behavioral, biochemical and histological markers using 5 months (±2 weeks) old female hAPP Tg mice. Therefore, mice were treated every two or three weeks up to 4 months and in the end of the treatment period behavior was evaluated in the Morris Water Maze. At sacrifice brain, CSF and blood were collected. Aβ40 and Aβ42 levels were determined in four different brain homogenate fractions as well as in CSF of Tg mice. Plaque load was quantified in the cortex and the hippocampus of 8 Tg animals per treatment group.
ii) Animals • Female Tg mice with a C57BU6xDBA background and an age of 5 months (±2 week) were randomly assigned to treatment groups 1 to 3 (n=12). […]

dqsrpvqpflnIttprkprpprrrqrrkkrg (DQSRPVQPFLNLTTPRKPRPPRRRQRRKKRG; not fully specified (some residues); printed as dqsrpvqpflnIttprkprpprrrqrrkkrg) [XG-102]
learning performance between day 1 and day 4 (0.1 mg/kg): a tendency to have worse learning performance between day 1 and day 4; also recorded: a slightly poorer learning performance between the first and the last training day
spatial learning in the MWM (0.1 mg/kg every two weeks or 10 mg/kg every three weeks s.c., four months): remained widely uninfluenced
